This is an account of results in PubChem BioAssay AID1648 (Sanford-Burnham Center for Chemical Genomics, 2009).

Active and inactive are the calls of the source. No rule for the calls is given here.

For the assay, the target named is Serine/threonine-protein kinase mTOR (Homo sapiens) (UniProt P42345). The experiment in a line: mTOR FRB domain ligand binding – biophysical, NMR (AID 1648). Particulars: NMR binding to FRB domain, chemical shift.
Sequence of Serine/threonine-protein kinase mTOR (Homo sapiens) (P42345 2015-2114): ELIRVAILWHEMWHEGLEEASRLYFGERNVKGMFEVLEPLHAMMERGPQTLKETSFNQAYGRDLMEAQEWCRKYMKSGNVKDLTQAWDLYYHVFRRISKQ
As a reminder, the Kd is the equilibrium constant for the complex coming apart. Turning to `CNC(=O)Nc1cccc(C(F)(F)F)c1`, the Kd is > 4 mM (inactive). For `O=C1NC(=O)C(C2SC(=O)NC2=O)S1` (stereo unspecified) the value was > 4 mM (inactive); for `COc1cc(OC)c2c(=O)c(-c3ccc4c(c3)OCO4)coc2c1`, > 4 mM (inactive); for `COc1ccc(Cl)cc1-c1n[nH]c(=S)n1C`, > 4 mM (inactive).

On to `CC(C)NC1CS(=O)(=O)CC1O` (stereo unspecified), for which the Kd was > 4 mM (inactive). For `C[C@@H]1C(=O)OC2[C@H](O)C34[C@@H]5OC(=O)[C@@]3(O[C@@H]3OC(=O)[C@H](O)[C@@]34[C@H](C(C)(C)C)[C@H]5O)[C@]21O` (stereo partly specified) the value was > 4 mM (inactive); for `O=c1c[n+]([O-])c2ccccc2n1OCc1ccccc1`, > 4 mM (inactive). For `O=S1(=O)NC(=NCc2ccccc2)c2ccccc21` the value was > 4 mM (inactive); for `C=C1C2CC[C@H]3[C@]4(C)C[C@H](OC5OC(CO)C(OS(=O)(=O)O)C(OS(=O)(=O)O)C5OC(=O)CC(C)C)C[C@@H](C(=O)O)[C@H]4CC[C@]3(C2)[C@H]1O` (stereo partly specified), > 4 mM (inactive).

On to `N#Cc1cn(CC(=O)N2CCCC2)c2ccccc12`, for which the Kd was > 4 mM (inactive).

Consider `CC(=O)N1CC2(C)CN(C(C)=O)CC(C)(C1)C2O` (stereo unspecified), for which the Kd was > 4 mM (inactive). For `O=C1CCC(=O)N1c1ccc(O)cc1` the value was > 4 mM (inactive). For `COc1cc(C(C)=O)cc(OC)c1O` the value was > 4 mM (inactive); for `O=C1CCC(C(=O)NCc2ccc(Cl)cc2)N1` (stereo unspecified), > 4 mM (inactive); for `Cc1cc(C)n2nc(-c3cccnc3)nc2n1`, > 4 mM (inactive). For `CC(=O)OC1CCC2(O)CC1(C)CCC1C2CC1(C)C` (stereo unspecified) the value was > 4 mM (inactive); for `CC1(C)CC(NC(=O)/C=C/C(=O)O)CC(C)(C)N1`, > 4 mM (inactive). Turning to `O=C1NC(=O)C(Cc2cccs2)C(=O)N1`, the Kd was > 4 mM (inactive). For `Clc1ccccc1OCc1nc(-c2ccccn2)no1` the value was > 4 mM (inactive); for `CN1CCC(NC(=O)c2cccnc2)CC1`, > 4 mM (inactive). Turning to `O=C(Nc1cccnc1)c1cnn2cccnc12`, the Kd was > 4 mM (inactive). For `O=C(O)Cn1cc(C(=O)C2CC2)c2ccccc21` the value was > 4 mM (inactive). For `O=C(Nn1cnnc1)c1ccccc1-c1ccccc1` the value was > 4 mM (inactive). For `C[C@H]1C(=O)CCC2[C@]3(C)CC[C@@]4(C)C5CC(C)(C)CC[C@]5(C)CC[C@]4(C)C3CC[C@@]21C` (stereo partly specified) the value was > 4 mM (inactive); for `CN(C)Cc1nc2c([nH]1)c(=O)[nH]c(=O)n2C`, > 4 mM (inactive); for `COC(=O)c1ccc(N2CCOCC2)nc1`, > 4 mM (inactive). As to `COC(=O)C1CCc2ccccc2N1` (stereo unspecified), the Kd is > 4 mM (inactive). Consider `CC(=O)c1cc(C)ccc1OC(=O)c1cccnc1`, for which the Kd is > 4 mM (inactive). For `Cc1cc(C(=O)Nc2ccc3c(c2)OCO3)cs1` the value was > 4 mM (inactive); for `OCC1COc2ccccc2O1` (stereo unspecified), > 4 mM (inactive). For `O=C(O)c1ccc(-n2ccnc2)cc1` the value was > 4 mM (inactive); for `Cc1cc(NC(=O)c2cc(C)on2)no1`, > 4 mM (inactive). As for `CN(C)C(=O)C12CCC(C)(C(=O)O1)C2(C)C` (stereo unspecified), the Kd is > 4 mM (inactive). As for `NC(C(=O)O)C(O)C(=O)O` (stereo unspecified), the Kd is > 4 mM (inactive). For `CNC(=O)c1ccc([N+](=O)[O-])cc1Cl` the value was > 4 mM (inactive); for `Nc1cc(F)nc(F)n1`, > 4 mM (inactive); for `Cn1c(CO)nc2cc(N)ccc21`, > 4 mM (inactive).

`COc1nc(C)ccc1-c1noc(-c2ccco2)n1`: the Kd was > 4 mM (inactive).

On to `Nc1cccc(NC(=O)c2ccco2)c1`, for which the Kd was > 4 mM (inactive). Regarding `COc1ccc(-c2cc(=O)c3c(OC)c(OC)c(OC)c(OC)c3o2)cc1`, the Kd is > 4 mM (inactive). For `COc1c2occc2c(OC)c2c(=O)cc(C)oc12` the value was > 4 mM (inactive). On to `CCOC(=O)c1snnc1-c1ccccc1`, for which the Kd was > 4 mM (inactive). For `Cc1ccc(-n2[nH]c(C)cc2=O)cc1` the value was > 4 mM (inactive). For `O=C1C=CC(=O)c2c(O)cccc21` the value was > 4 mM (inactive). Turning to `Nc1nc2ccccc2n1CCN1CCCC1`, the Kd is > 4 mM (inactive).

For `Nc1ncnc2c1ncn2CCN1CCOCC1`, the Kd was > 4 mM (inactive). `O=C(Nc1ccccc1[N+](=O)[O-])c1ccc(=O)[nH]n1`: the Kd was > 4 mM (inactive).

For the compound `c1ccc(CCc2nc(-c3ccccn3)no2)cc1`, the Kd is > 4 mM (inactive). For `CC(=O)c1ccc(NS(=O)(=O)c2cccc(C)c2)cc1` the value was > 4 mM (inactive). For `Nc1nnc(-c2ccncc2)s1` the value was > 4 mM (inactive); for `CS(=O)(=O)CCCCN=C=S`, > 4 mM (inactive). Take `CN(C)c1oc(-c2ccccc2Cl)nc1C#N`: the Kd was > 4 mM (inactive). As to `COc1ccc([C@H]2COc3c(ccc(O)c3OC)C2)c(OC)c1O`, the Kd is > 4 mM (inactive).

For `COC(=O)C[C@@H]1C2(C)C(=O)[C@@H](CC3=C4C=C(OC)O[C@@H](c5ccoc5)[C@]4(C)CCC32)[C@H](O)C1(C)C` (stereo partly specified), the Kd is > 4 mM (inactive).

Turning to `O=C1NC(=S)NC(=O)C1=Cc1cccs1`, the Kd is > 4 mM (inactive).

Regarding `CC12CCC(O)CC1CCC1C2[C@H](O)CC2(C)C(C3=CC(=O)OC3)CCC12O` (stereo partly specified), the Kd is > 4 mM (inactive). For `COC(=O)c1cnccc1C(F)(F)F` the value was > 4 mM (inactive).

Consider `NCC(N)C(=O)c1ccccc1` (stereo unspecified), for which the Kd is > 4 mM (inactive). `Nc1nnc(SCc2ccc3c(c2)OCO3)s1`: the Kd was > 4 mM (inactive). For `CCOC(=O)c1c(C)nc2sccn12` the value was > 4 mM (inactive); for `Oc1cc(O)c2c(c1)O[C@H](c1ccc(O)c(O)c1)[C@@H](O)C2`, > 4 mM (inactive). For `COc1cc2c(cc1OC)C1=C(C#N)CCC(=O)N1CC2` the value was > 4 mM (inactive). For `O=C(Nc1ccccc1)c1cccc(N2C(=O)CCC2=O)c1` the value was > 4 mM (inactive); for `COn1c(=O)c(-c2ccco2)[n+]([O-])c2ccccc21`, > 4 mM (inactive). With `COc1ccccc1-c1cn[nH]c(=S)n1`, the Kd was > 4 mM (inactive). For `O=c1[nH]c(O)c(C=NCc2cccs2)c(=O)[nH]1` the value was > 4 mM (inactive); for `CN(Cc1nc2ccccc2n1C)C(=O)c1cccs1`, > 4 mM (inactive); for `CCCS(=O)(=O)N1CCN(c2ccccn2)CC1`, > 4 mM (inactive).

Turning to `CCCn1c(S(=O)(=O)O)nc2ccccc21`, the Kd was > 4 mM (inactive). With `O=C(CSc1ncccn1)Nc1nccs1`, the Kd was > 4 mM (inactive). For `C(=C\c1ccccc1)/C=N/n1cnnc1` the value was > 4 mM (inactive); for `COc1cccc(NC(=O)c2cnn(C)c2Cl)c1`, > 4 mM (inactive). For `C[C@@H]1CC[C@@]2(OC1)OC1CC3C4CC=C5C[C@@H](O)CC[C@]5(C)C4CC[C@]3(C)C1[C@@H]2C` (stereo partly specified) the value was > 4 mM (inactive); for `NC(=O)CSc1nnc2ccc3ccccc3n12`, > 4 mM (inactive). For `Cc1nn(C)c2sc(CO)cc12` the value was > 4 mM (inactive); for `Cc1c(CCO)c(=O)n2c([nH]c3ccccc32)c1C#N`, > 4 mM (inactive); for `CN1CCN(C(=S)c2ccc(N(C)C)cc2)CC1`, > 4 mM (inactive).

As to `CC(=O)Oc1ccc2c(c1C(C)C)CCC1C(C)(C)CCC[C@]21C` (stereo partly specified), the Kd is > 4 mM (inactive).

Regarding `NC(=O)c1cc(N)cc(C(N)=O)c1`, the Kd is > 4 mM (inactive). For `NCc1ccc(-c2cccs2)cc1` the value was > 4 mM (inactive); for `Nc1c(C(=O)O)sc2ncccc12`, > 4 mM (inactive); for `COC(=O)c1nc(-c2ccccc2)oc1N(C)C`, > 4 mM (inactive). For `O=c1[nH]nc(Cc2ccncc2)c2ccccc12` the value was > 4 mM (inactive); for `CC(C)[C@@H]1CC[C@@H](C)C[C@H]1OC(=O)c1ccccc1`, > 4 mM (inactive).

In the case of `O=C(O)Cc1nc(-c2ccncc2)n[nH]1`, the Kd is > 4 mM (inactive). For `O=C1C2CCCCC2C(=O)N1c1ccc(O)cc1` (stereo unspecified) the value was > 4 mM (inactive); for `Nc1ncnc2c1ncn2C1O[C@H](COP(=O)(O)O)[C@@H](O)[C@H]1O` (stereo partly specified), > 4 mM (inactive); for `CC(=O)O[C@H]1CC[C@]2(C)C3CC[C@@]4(C)C(CC5O[C@@]6(CCC(C)CO6)[C@@H](C)C54)C3CC[C@@H]2C1` (stereo partly specified), > 4 mM (inactive).

For `CC(=O)Oc1ccc2c(c1)c(C(C)=O)c(C)n2C`, the Kd was > 4 mM (inactive). For the compound `Cc1nnc(SCC(=O)NC2CCCC2)[nH]c1=O`, the Kd is > 4 mM (inactive). For `OC1(c2ccc(Cl)cc2)CCNCC1` the value was > 4 mM (inactive). For `CCOC(=O)CN1C(=O)c2ccccc2C1=O` the value was > 4 mM (inactive); for `O=c1cnnc(N2CCCCC2)[nH]1`, > 4 mM (inactive). For `NCc1csc(-c2cccs2)n1` the value was > 4 mM (inactive); for `CC(=O)Nc1ccc(NC(=O)c2ccnn2C)cc1`, > 4 mM (inactive); for `O=C(c1ccc(Cl)s1)N1CCOCC1`, > 4 mM (inactive).

For the compound `NC(=O)CC1NC(=O)c2ccccc21` (stereo unspecified), the Kd was > 4 mM (inactive). For `O=C(Nc1ccon1)c1ccc2c(c1)OCO2` the value was > 4 mM (inactive); for `Cc1ccc(C(=O)Nc2c[nH]c(=O)[nH]c2=O)cc1`, > 4 mM (inactive); for `CC(=O)OC1CCC2(C)C3CC(=O)C4(C)C(CC5OC6(CCC(C)CO6)[C@@H](C)C54)C3CC[C@H]2C1` (stereo partly specified), > 4 mM (inactive). For `CN1C(=O)c2ccc(C(=O)NCc3ccccc3)cc2C1=O` the value was > 4 mM (inactive).
